Experimental data taken from US8962691B2, “Retinoid replacements and opsin agonists and methods for the use thereof” (University of Washington, priority 2003, dated 2015).

Tests used:
phosphorylated opsin = molecular target: T1, phosphorylated opsin (Mus musculus, UniProt P15409); test: Immunocytochemistry with anti-phosphorylated Rh antibody; assay type: in vivo; details: gavaged once at PND 30, analyzed 48 hours post-treatment, dark
T1 construct: The retinas from Rpe65+/+ mice and Rpe65−/− mice were fixed in constant darkness; from tissue; host or cells: retina sections of Rpe65-/- and Rpe65+/+ mice (in vivo dosing)
Description: Rpe65 mice were divided into five groups: Rpe65−/−, Rpe65−/− that were gavaged with 9-cis-retinal and kept in the dark; Rpe65−/− that were gavaged with 9-cis-retinal, exposed to a flash, and kept in the dark for 15 min; Rpe65+/+ that were kept in the dark; and Rpe65+/+ that were exposed to a flash and kept in the dark for 15 minutes. For the flash studies, dark-adapted mice were subjected to a flash (Sunpak 433D, 1 ms) from a distance of 2 cm. The retinas were fixed in 4% paraformalydehyde in 0.13 M sodium phosphate, pH 7.4, for 15 hours at 4° C., and the tissues were transferred to 5, 10, or 15% sucrose in 0.13 M sodium phosphate, pH 7.4, for 30 minutes each time and stored overnight in 20% sucrose in the same buffer at 4° C. The tissue was then transferred to optimal cutting temperature cryoembedding compound and sectioned at 10 μm. The cryosections were incubated overnight at 4° C. in mouse monoclonal anti-phosphorylated Rh A11-82P antibody diluted 1:10. Triton X-100 (0.1%) was included in all phosphate-buffered saline solutions to facilitate antibody penetration. The controls were processed by omitting primary antibodies from the incubation buffer. After incubation in primary antibodies, the sections were rinsed with phosphate-buffered saline and then incubated with indocarbocyanine (Cy3)-conjugated goat anti-mouse IgG (1:200). […]

Rpe65−/− mice = test: Light and electron microscopy of RPE-ROS interface; assay type: in vivo, mouse
Description: Eye cups were prepared by removing the anterior segment and vitreous. […] “Thin” sections (1.0 μm) were stained with Richardson's blue solution (1%) and subjected to light microscopy. “Ultrathin” sections (0.05 μm) were stained with uranyl acetate/lead citrate and subjected to electron microscopy.

T1 sequence (P15409 whole entry): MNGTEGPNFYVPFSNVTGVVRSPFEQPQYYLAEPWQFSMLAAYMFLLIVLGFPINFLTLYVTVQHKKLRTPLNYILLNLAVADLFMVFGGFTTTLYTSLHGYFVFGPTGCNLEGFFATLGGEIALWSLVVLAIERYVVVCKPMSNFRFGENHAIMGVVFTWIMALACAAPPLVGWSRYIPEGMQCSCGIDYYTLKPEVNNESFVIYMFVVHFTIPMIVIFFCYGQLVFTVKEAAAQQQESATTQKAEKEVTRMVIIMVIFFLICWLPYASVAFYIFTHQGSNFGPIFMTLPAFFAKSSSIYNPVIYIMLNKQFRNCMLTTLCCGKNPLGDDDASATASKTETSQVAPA

With `CC1=C(/C=C/C(C)=C\C=C\C(C)=C\C=O)C(C)(C)CCC1` [9-cis-retinal] the “ROS labeling by antibody against phosphorylated opsin” value (phosphorylated opsin) was “abolished”, the “filling of RPE vacuoles (lipid-like droplets)” value (Rpe65−/− mice; early treated mice, over several months) was “only partially filled” and the “interface contacts between the RPE and ROS” value (Rpe65−/− mice; young animals or young adults treated) was “improved”.
